Test results taken from patent US20230330059A1, “3-PHENYL-2H-CHROMENE DERIVATIVE AND PHARMACEUTICAL COMPOSITION FOR PREVENTING OR TREATING ALZHEIMER'S, CONTAINING SAME” (NEUROBIONET, INC., priority 2020, published 2023).

Tests used:
[1] = system: PSEN1 gene expression in PSEN1-overexpressed HEK293 cells; assay: Inhibition of dementia gene PSEN1 expression (qRT-PCR); type: cell-based; details: 0.1 and 1 µM, 24 hours, FIG. 17
Procedure: HEK293 cells and PSEN1-overexpressed HEK293 cells were seeded at a density of 1x10^6 cells/well into 6-well plates containing a DMEM medium and stabilized overnight, following by treating the cells with or without various concentrations (0.1 and 1 µM) of the sample (SPA1413) for 24 hours. Thereafter, RNA was extracted from the cells, using TRIzol reagent. Reverse transcription was performed using the GoScript™ reverse transcription system according to the manufacturer’s instructions. A qRT-PCR reaction was performed in a volume of 20 µl using the standard SYBR Green PCR kit and Roche Light® Instrument according to the standard protocol. Relative gene expression levels were calculated by the 2^-ΔΔCt method.

5xFAD mice = assay: Passive avoidance test; type: in vivo, mouse; details: 10 mg/kg orally once a day for 1 month, FIG. 22
Procedure: The experiment was conducted with 5X-FAD transgenic mice having Alzheimer’s disease introduced therein. The 5X FAD mouse is an animal model of Alzheimer’s disease with all the human AD-linked mutations: Swedish (K670N/ […]), Florida (1716V) and London (V7171) in APP (695) and M146L in Presenilin 1
5xFAD mice were purchased from Jackson Lab and bred in and in through mating with C57B16/SJL F1 females, based on the information provided by the supplier. Through genotyping, the mice were divided into groups of 7-9 members, including normal groups (WT) and genetically modified groups (5xFAD): 4.5-month-old 5xFAD mice (Tg) and age-matched controls (WT). To the WT or Tg groups, a vehicle or SPA1413 was orally administered at a dose of 10 mg/kg once a day for 1 month. To test whether SPA1413 has a therapeutic effect on Alzheimer’s disease, the mice in 5 groups (WT-vehicle; WT-SPA1413 5xFAD-vehicle; 5xFAD-SPA1413; and 5xFAD-donepezil) were evaluated for cognitive ability.
Passive avoidance test: Memory impairment was evaluated using the passive avoidance test. […] After being trained to learn that an unpleasant stimulus was given thereto in the dark room, the mice were evaluated for memory for the corresponding content as step-through latency.

## Oc1ccc(C2=Cc3ccc(O)cc3OC2)cc1 [SPA1413, 3-(4-Hydroxyphenyl)-2H-chromen-7-ol]
[1]
  PSEN1 gene expression: inhibited the upregulated expression of PSEN1 gene
5xFAD mice
  step-through latency: significantly recovered
